Experimental data as given in patent publication US20260102387A1, “IMMUNOSUPPRESSIVE COMPOUNDS” (UNIVERSITÄT BASEL, priority 2022, published 2026).

Columns and labels:
RBL cells = assay: In vitro toxicity, MTT assay; type: cell-based, Rat
Protocol: MTT assay was performed with 3-(4,5-dimethylthiazol-2-yl)-2,5-diphenyltetra-zolium bromide (MTT, Cayman chemicals) using the manufacturers protocol. In brief, RBL cells pretreated with coronin 1 expression inhibitor or vehicle controls were reseeded and cultured in a 96-well plate at a concentration of […] cells/ml of culture media, 10 μL of MTT was added and incubated for 4 h at 37° C. At the end, culture supernatant was removed and the formazan crystals were dissolved with 100 μl of crystal dissolving solution and the absorbance measured at 570 nm using a plate reader (Synergy) (FIG. 5B).

coronin 1 promoter = assay: EC50 analysis for coronin 1 promoter driven GFP inhibition by flow cytometry in RBL cells; type: cell-based; conditions: RBL, RBL cells, 48-65 h, flow cytometry
Summary of the method: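 RBL cells carrying coronin 1 promoter–GFP, mixed with CMV promoter–RFP cells, exposed to compounds 48–65 h and analyzed by flow cytometry with live/dead staining. EC50 derived from GFP inhibition, with RFP and viability as nonspecific and toxicity counter-reads; cycloheximide and DMSO as controls, relative potency normalized to a reference compound.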

coronin 1 [1] = assay: Coronin 1 Western blotting in human PBMCs; type: cell-based; conditions: 10 μg/ml, 5 days
Protocol: (§1) buffer with 0.2% SDS containing protease and phosphatase inhibitors (Roche) at 4° C., followed by protein determination (BCA, Pierce) and SDS-PAGE, transferred onto nitrocellulose and probed using antibodies against the indicated proteins (actin and coronin 1) followed by HRP-labeled secondary antibodies and developed using an enhanced chemi-luminescence imager (Fuji) (FIG. 8A).
Heparinized or EDTA treated blood or buffy coat from healthy volunteers were enriched for monocytes using the standard Histopaque 1.077 gradient centrifugation methodology. Post enrichment, the monocyte fraction was washed extensively with plain RPMI and subsequently counted and seeded in 96 well plate at a density of 0.2 million cells/well in a volume of 200 μl RPMI-1640 (Sigma) containing 1× penicillin and streptomycin (Gibco), 2 mM L-glutamine (Gibco), 10% heat inactivated FCS (PAA) and heparin 50 units/ml along with the vehicle (DMSO) or coronin 1 inhibitor at indicated concentrations. Cells were incubated in a 37° C. humidified incubator with a 5% CO2 for five days with the expression inhibitor and vehicle replenished in between at 48 hours post seeding by replacing 50% of the media. […]

[2] = test system: human PBMCs (CD4 and CD8 T cells); assay: Proinflammatory cytokine production in human PBMCs after CD3/CD28 stimulation, flow cytometry; type: cell-based; conditions: 10 μg/ml, 4.5 days, CD3 and CD28 antibodies
Protocol: Heparinized or EDTA treated blood or buffy coat from healthy volunteers were enriched for monocytes using the standard Histopaque 1.077 gradient centrifugation methodology. Post enrichment, the monocyte fraction was washed extensively with plain RPMI and subsequently counted and seeded in 96 well plate at a density of 0.2 million cells/well in a volume of 200 μl RPMI-1640 (Sigma) containing 1× penicillin and streptomycin (Gibco), 2 mM L-glutamine (Gibco), 10% heat inactivated FCS (PAA) and heparin 50 units/ml along with the vehicle (DMSO) or coronin 1 inhibitor at indicated concentrations. Cells were incubated in a 37° C. humidified incubator with a 5% CO2 for five days with the expression inhibitor and vehicle replenished in between at 48 hours post seeding by replacing 50% of the media. Subsequently, the cells were assessed for coronin 1 down regulation by Western blotting (FIG. 8A) and in parallel stimulated with anti-CD3 (2 μg/ml) and anti-CD28 (10 μg/ml) antibodies overnight and treated with brefeldin A for a duration of 4 h and subjected to surface staining (for CD3, CD4, CD8 and CD19) along with live-dead marker and fixed with 4% formaldehyde, permeabilized with 0.1% saponin and subjected to intracellular staining for interleukin-2 (FIG. 8B,C).

coronin 1 [3] = assay: Western blotting of coronin 1 protein levels in RBL cells; type: cell-based, Rat; conditions: RBL cell lines, chemiluminescence imager
Protocol: as §1, with “SDS-PAGE with equal protein amounts” for “SDS-PAGE,”, “3C).” for “8A).”

## COC(=O)C1=C(C)NC2=C(C(=O)CC(c3ccccc3OC)C2)C1c1cccc(O)c1 (centres unmarked) [Comp. 11, methyl-4-(3-hydroxyphenyl)-7-(2-methoxyphenyl)-2-methyl-5-oxo-1,4,5,6,7,8-hexahydro-3-quinolinecarboxylate]
RBL cells
  in vitro toxicity by MTT assay: minimal toxicity
Coronin 1 promoter
  EC50: 1200 nM
Coronin 1 [1]
  coronin 1 depletion in human PBMCs (Western blotting): coronin 1 depletion
[2]
  production of interleukin-2 (IL-2) in CD4 and CD8 T cells post T cell receptor stimulation: attenuates immune responses
Coronin 1 [3]
  coronin 1 depletion (Western blotting, protein level): ~80%
